Measurements published in US5604209A, “Synergistic antiviral compositions” (Mitsubishi Chemical Corporation, priority 1993, dated 1997).
pIC50: −log10 of the molar value.

Key:
[1] = background statement; cited from earlier work
[2] = target: T1, HIV-1 reverse transcriptase (Human immunodeficiency virus type 1 group M subtype B, UniProt P04585); experiment: Inhibition of HIV-1 reverse transcriptase (incorporation of tritiated thymidine phosphate into cDNA), alone and combined with AZT-TP; type: biochemical; conditions: for Combination Index CI50 (50% inhibition of RT) / Combination Index CI70 (70% inhibition of RT) / Combination Index CI90 (90% inhibition of RT): in combination with AZT-TP, AZT-TP/compound ratio 1/20 (MKC-442), 1/250 (R82913), 1/250 (Nevirapine), 1/40 (L-696229), CI<1 synergistic, CI>1 counterbalance
T1 construct: HIV-1 reverse transcriptase (RT)
Protocol: The inhibitory activity was evaluated on the basis of the incorporation Of tritiated thymidine phosphate into acid-precipitating cDNA in the presence of HIV-1 reverse transcriptase (RT).
To a reaction solution (50 mM Tris-HC1, pH 8.4, 0.1% Triton X-100, 100 mM magnesium chloride, 2 mM dithiothreitol, 50 mM potassium chloride, 0.1 mg/ml bovine serum albumin (nuclease-free, Worthington, Freehold, N.J.), 0.5 μCi [methyl-^3 H]TTP and 12 μg/ml poly(rA). p(dT)12-18)was added 10% solution of a test drug in dimethyl sulfoxide and RT (0.05 units) to obtain a reaction mixture of total volume of 50 μl. The mixture was incubated at 37° C. for 30 min and the reaction stopped with 2M EDTA (10 μl). The resultant reaction mixture (50 μl) was spotted on Whatman DE-81 filter paper circle. The circle was washed with 5% disodium hydrogenphosphate (×3), water (×2) and 95% ethanol (×2) and the radiation was counted with scintillation counter.
Thus, an isoborogram was prepared to evaluate the effect of combined use of AZT-TP and various allosteric inhibitors according to the method of Chou et al., Adv. Enzyme Regul., 22, 27-55 (1984) (FIG. 1). The data plotted were obtained by dividing IC50, the concentration of an allosteric inhibitor required to achieve 50% inhibition of reverse transcriptase of HIV, in the presence of AZT-TP with IC50 of an allosteric inhibitor obtained in the absence of a given concentration of AZT-TP. In the FIG. 1, each symbol represents individual allosteric inhibitor as follows.
Combination indexes (CI) for 50%, 70% and 90% inhibition of RT (representedby CI50, CI70 and CI90) were calculated according to the method of Prichard et al., Antimicrob. Agents Chemother., 35, 1060-1065 (1991) on the basis of results obtained in experiments carried out at least twice at indicated concentration ratio. Results are shown in Table 1 below, wherein CI<1 means the synergistic effect; CI1, additive effect; and CI>1, counterbalance effect.

Row | SMILES | reported side effects [1] | concentration of AZT-TP for 50% inhibition of RT as fraction of its IC50 alone ([2]; in the presence of MKC-442 at 1/2 concentration of its IC50) | Combination Index CI50 (50% inhibition of RT) [2] | Combination Index CI70 (70% inhibition of RT) [2] | Combination Index CI90 (90% inhibition of RT) [2] | pIC50 ([2]; used alone, poly(rA).p(dT)12-18 template, 37° C., 30 min, read-out: IC50 (concentration required to obtain 50% inhibition of RT when used alone))
1 | Cc1cn([C@H]2C[C@H](N=[N+]=[N-])[C@@H](CO)O2)c(=O)[nH]c1=O [AZT, 3'-azide-3'-deoxythymidine] | severe anemia or leukopenia due to suppression of bone marrow |  |  |  |  | 
2 | Cc1cn([C@H]2C[C@H](N=[N+]=[N-])[C@@H](COP(=O)(O)OP(=O)(O)OP(=O)(O)O)O2)c(=O)[nH]c1=O [AZT-TP, 3'-azide-3'-deoxythymidine triphosphate] |  | about 1/10 |  |  |  | 
3 | CCc1cc(CCc2nc3ccccc3o2)c(=O)[nH]c1C [L-696229, 3-[2-(Benzoxazole-2-yl)ethyl]-5-ethyl-6-methylpyridine-2(1H)-one] |  |  | 0.97 | 0.99 | 1.06 | 
4 | CCOCn1c(Cc2ccccc2)c(C(C)C)c(=O)[nH]c1=O [MKC-442, 6-Benzyl-1-ethoxymethyl-5-isopropyluracil] |  |  | 0.82 | 0.63 | 0.43 | 7.47
5 | Cc1ccnc2c1NC(=O)c1cccnc1N2C1CC1 [Nevirapine, 5,11-Dihydro-11-cyclopropyl-4-methyldipyrido[2,3,-b:2',3'-e][1,4]diazepine-6-one] |  |  | 1.04 | 0.91 | 0.69 | 
6 | CC(C)=CCN1Cc2cc(Cl)cc3[nH]c(=S)n(c23)C[C@@H]1C [R82913, (+)-(S)-9-Chloro-4,5,6,7-tetrahydro-5-methyl-6-(3-methyl-2-butenyl)imidazo[4,5,1-jk][1,4]benzodiazepine-2(1H)-thione] |  |  | 1.15 | 1.33 | 1.70 | 
